This note sets out measurements from patent US20240366586A1, “METHODS AND AGENTS FOR MODULATING THE IMMUNE RESPONSE” (The Regents of the University of California, priority 2021, published 2024).

Test [1] deals with Il12b. In words: Dual-fluorescence reporter macrophage cell line screen, lipopolysaccharide-stimulated: chromatinized Il12b-eGFP versus minimal Il12b-DsRed reporter. The test is classed as cell-based. To be noted: for selective inhibition of the chromatinized Il12b reporter (eGFP) but not the minimal reporter (DsRed): lipopolysaccharide-stimulated dual-fluorescence reporter macrophage cell line; for inhibition of IL12b, eGFP fluorescence as readout: additional compounds of Formulas (I)-(IV), same screening procedure. An excerpt: We hypothesized that molecules that inhibit the “chromatinized” Il12b reporter but not the “minimal” Il12b reporter would offer a greater degree of Il12b inhibition selectivity.
We generated a dual-fluorescence reporter macrophage cell line having both a [Il12b]-[eGFP] chromatin-based construct and a [Il12b]-[DSred] plasmid vector. FIG. 3. We then stimulated an […] response in the cell line using lipopolysaccharide, an activator of Il12b expression, and tested a library of over 60,000 known and unknown (i.e., undescribed in the literature) small-molecule compounds.
Additional compounds in Formulas (I)-(IV) were screened following the same procedure as described above, with eGFP fluorescence as a readout for inhibition of IL12b.

Test [2] deals with Il12b. Kind of test: RNA-Seq / ATAC-Seq of lipopolysaccharide-induced genes in treated macrophages. The test is classed as cell-based. The text has this:
Our screening experiment identified as compounds that […]. Using ATAC-Seq and RNA-Seq analyses, we confirmed that the screen indeed identified hits that work by affecting chromatin, and confirmed that β adrenergic agonists, (and in particular β2 adrenergic agonists) are indeed exquisitely selective inhibitors of Il12b gene expression.
The inhibition of Il12b by β agonists occurs upon stimulation of macrophages with other inflammatory stimuli, including CpG DNA, double stranded RNA, and imiquimod. We confirmed that the cAMP/PKA pathway, but not the exchange factor directly activated by cAMP (EPAC) pathway, was largely responsible for mediating the Il12b suppression by 0-agonists.
FIG. 7B depicts a fold change box plot in samples treated with UK17 (3-fluoro-N′-[(5-nitro-2-thienyl)methylene]benzohydrazide (CID #6895129)), classifying lipopolysaccharide-induced genes by gene-regulation cluster as previously described in Tong A. et al., A Stringent Systems Approach Uncovers Gene-Specific Mechanisms Regulating Inflammation, Cell 165 165-179 (2016). Box plots indicate the distribution of fold change values for each cluster. Red lines are drawn at 1 and −1, indicating a 2-fold up or down-regulation of genes. Il12b is labeled in red.

Counter-ions that a name gives are not always drawn.

`C/C(=C\c1cccc2ccccc12)[N+](=O)[O-]` [1-(2-nitro-1-propen-1-yl)naphthalene]: the “selective inhibition of the chromatinized Il12b reporter (eGFP) but not the minimal reporter (DsRed)” value in the test with Il12b [1] is “selective inhibitors of chromatinized Il12b”.
Consider `CCOc1ccc(/C=C/[N+](=O)[O-])cc1` [1-ethoxy-4-(2-nitrovinyl)benzene], for which, in the test on Il12b [1], the “selective inhibition of the chromatinized Il12b reporter (eGFP) but not the minimal reporter (DsRed)” value is recorded as “selective inhibitors of chromatinized Il12b”.
Same read-out and setting: the result for `O=C(/C(=C/c1cccnc1)c1nc2ccccc2[nH]1)c1ccccc1` [2-(1H-benzimidazol-2-yl)-1-phenyl-3-(3-pyridinyl)-2-propen-1-one] reads “selective inhibitors of chromatinized Il12b”; that for `NC(=O)c1ccccc1/N=C/c1ccc([N+](=O)[O-])s1` [2-{[(5-nitro-2-thienyl)methylene]amino}benzamide], “selective inhibitors of chromatinized Il12b”.
Consider `CC[n+]1c2ccccc2nc2ccccc21` [5-ethylphenazin-5-ium ethyl sulfate], for which the “selective inhibition of the chromatinized Il12b reporter (eGFP) but not the minimal reporter (DsRed)” value with Il12b [1] is given as “selective inhibitors of chromatinized Il12b”.
Turning to `O=c1cc(C(Cl)(Cl)Cl)oc2ccc(Cl)cc12` [6-chloro-2-(trichloromethyl)-4H-chromen-4-one], in the test on Il12b [1], the “selective inhibition of the chromatinized Il12b reporter (eGFP) but not the minimal reporter (DsRed)” value is reported as “selective inhibitors of chromatinized Il12b”.
For the compound `COc1cc(OC)cc(C(=O)N(Cc2ccc(F)cc2)Cc2cc3c(C)ccc(C)c3[nH]c2=O)c1` [Compound I-2, N-[(5,8-dimethyl-2-oxo-1H-quinolin-3-yl)methyl]-N-[(4-fluorophenyl)methyl]-3,5-dimethoxybenzamide], the “inhibition of IL12b, eGFP fluorescence as readout” value (from here on “inhibition of IL12b … as readout”) in the test on Il12b [1] is “Positive activity”.
Same read-out and setting: then `CCOc1ccc2[nH]c(=O)c(CN(Cc3ccco3)C(=O)c3ccc(C(C)(C)C)cc3)cc2c1` [Compound I-3, 4-tert-butyl-N-[(6-ethoxy-2-oxo-1H-quinolin-3-yl)methyl]-N-(furan-2-ylmethyl)benzamide], with “Positive activity”.
The same measure, in the same setting: then `Cc1ccc(NC(=O)N(Cc2ccco2)Cc2cc3cc4c(cc3[nH]c2=O)OCCO4)cc1` [Compound I-4, 1-(furan-2-ylmethyl)-3-(4-methylphenyl)-1-[(7-oxo-3,6-dihydro-2H-[1,4]dioxino[2,3-g]quinolin-8-yl)methyl]urea], with “Positive activity”; and `CCOc1ccc2[nH]c(=O)c(CN(Cc3ccco3)C(=O)Nc3ccc(OC)cc3)cc2c1` [Compound I-5, 1-[(6-ethoxy-2-oxo-1H-quinolin-3-yl)methyl]-1-(furan-2-ylmethyl)-3-(4-methoxyphenyl)urea], with “Positive activity”; and `CCOc1ccc(NC(=S)N(Cc2ccco2)Cc2cc3ccc(C)cc3[nH]c2=O)cc1` [Compound I-6, 3-(4-ethoxyphenyl)-1-(furan-2-ylmethyl)-1-[(7-methyl-2-oxo-1H-quinolin-3-yl)methyl]thiourea], with “Positive activity”.
Same read-out and setting: the result for `Cc1ccc(NC(=O)N(Cc2ccco2)Cc2cc3cc4c(cc3[nH]c2=O)OCO4)cc1` [Compound I-7, 1-(furan-2-ylmethyl)-3-(4-methylphenyl)-1-[(6-oxo-5H-[1,3]dioxolo[4,5-g]quinolin-7-yl)methyl]urea] reads “Positive activity”.
On to `O=C(NCc1ccccc1)N(Cc1ccco1)Cc1cc2cc3c(cc2[nH]c1=O)OCO3` [Compound I-8, 3-benzyl-1-(furan-2-ylmethyl)-1-[(6-oxo-5H-[1,3]dioxolo[4,5-g]quinolin-7-yl)methyl]urea], for which the “inhibition of IL12b … as readout” value with Il12b [1] is listed as “Positive activity”.
Still for that read-out and setting: the result for `CCc1ccc2[nH]c(=O)c(CN(Cc3ccco3)C(=S)NCc3ccccc3)cc2c1` [Compound I-9, 3-benzyl-1-[(6-ethyl-2-oxo-1H-quinolin-3-yl)methyl]-1-(furan-2-ylmethyl)thiourea] reads “Positive activity”; that for `Cc1ccc(C)c2[nH]c(=O)c(CN(Cc3ccco3)C(=S)NCc3ccco3)cc12` [Compound I-10, 1-[(5,8-dimethyl-2-oxo-1H-quinolin-3-yl)methyl]-1,3-bis(furan-2-ylmethyl)thiourea], “Positive activity”; that for `CCOc1ccc2[nH]c(=O)c(CN(Cc3ccco3)C(=O)c3cccs3)cc2c1` [Compound I-11, N-[(6-ethoxy-2-oxo-1H-quinolin-3-yl)methyl]-N-(furan-2-ylmethyl)thiophene-2-carboxamide], “Positive activity”.
As for `O=C(CCc1ccccc1)N/N=C\c1ccc([N+](=O)[O-])s1` [II-2, N—[(Z)-(5-nitrothiophen-2-yl)methylideneamino]-3-phenylpropanamide], in the test on Il12b [1], the “inhibition of IL12b … as readout” value is “Positive activity”.
Still for that read-out and setting: then `O=C(N/N=C\c1ccc([N+](=O)[O-])o1)c1ccc(-c2ccccc2)cc1` [II-3, N—[(Z)-(5-nitrofuran-2-yl)methylideneamino]-4-phenylbenzamide], with “Positive activity”.
The same measure, in the same setting: then `C/C(=N\NC(=O)c1cccc(Cl)c1)c1ccc([N+](=O)[O-])o1` [II-4, 3-chloro-N-[(E)-1-(5-nitrofuran-2-yl)ethylideneamino]benzamide], with “Positive activity”; and `O=C(Cc1ccc(Cl)cc1)N/N=C\c1ccc([N+](=O)[O-])o1` [II-5, 2-(4-chlorophenyl)-N—[(Z)-(5-nitrofuran-2-yl)methylideneamino]acetamide], with “Positive activity”; and `O=C(N/N=C\c1ccc([N+](=O)[O-])o1)c1cccc2ccccc12` [II-6, N—[(Z)-(5-nitrofuran-2-yl)methylideneamino]naphthalene-1-carboxamide], with “Positive activity”.
With `O=c1cccc2n1C[C@H]1C[C@@H]2CN(Cc2ccc3ccc4cccc5ccc2c3c45)C1` [III-2, (1R,9S)-11-(pyren-1-ylmethyl)-7,11-diazatricyclo[7.3.1.0^2,7]trideca-2,4-dien-6-one], the “inhibition of IL12b … as readout” value with Il12b [1] is “Positive activity”.
The same measure, in the same setting: then `COc1ccc(Br)cc1/C=C/C(=O)c1ccc2c(c1)OCCO2` [IV-2, (E)-3-(5-bromo-2-methoxyphenyl)-1-(2,3-dihydro-1,4-benzodioxin-6-yl)prop-2-en-1-one], with “Positive activity”; and `COc1ccc(OC)c(/C=C/C(=O)c2ccc(C)cc2)c1` [IV-3, (E)-3-(2,5-dimethoxyphenyl)-1-(4-methylphenyl)prop-2-en-1-one], with “Positive activity”; and `COc1ccc(C(=O)/C=C/c2cccc(Cl)c2)cc1OC` [IV-4, (E)-3-(3-chlorophenyl)-1-(3,4-dimethoxyphenyl)prop-2-en-1-one], with “Positive activity”.
As to `CCOc1ccc(C(=O)/C=C/c2cccc(OC)c2OC)cc1` [IV-5, (E)-3-(2,3-dimethoxyphenyl)-1-(4-ethoxyphenyl)prop-2-en-1-one], the “inhibition of IL12b … as readout” value with Il12b [1] was “Positive activity”.
As to `CC(=O)Nc1ccc(Br)cc1-c1ccccc1` [N-(5-bromo-2-biphenylyl)acetamide], the “selective inhibition of the chromatinized Il12b reporter (eGFP) but not the minimal reporter (DsRed)” value in the test with Il12b [1] was “selective inhibitors of chromatinized Il12b”.
Consider `Cc1cc2ncn(N=Cc3ccc([N+](=O)[O-])o3)c2cc1C` [UK6, 5,6-dimethyl-N-[(5-nitro-2-furyl)methylene]-1H-benzimidazol-1-amine], for which the “rank of Il12b among the most strongly inhibited lipopolysaccharide-induced genes” value in the test with Il12b [2] (genes with RPKM>4 and FC>10, ranked by fold change (Max RPKM with/without compound)) is given as ≤ 20. Besides, the “selective inhibition of the chromatinized Il12b reporter (eGFP) but not the minimal reporter (DsRed)” value in the test with Il12b [1] is given as “selective inhibitors of chromatinized Il12b”.
Turning to `CCCC(=O)Nc1ncnc2c1ncn2[C@@H]1O[C@@H]2COP(=O)(O)O[C@H]2[C@H]1OC(=O)CCC` [dibutyryl cyclic AMP, reference compound], in the test with Il12b [2] (RNA-Seq and ATAC-Seq analyses, macrophages), the “selective inhibition of Il12b gene expression” value is “selectively inhibit IL12b expression”.
For `CCOC(=O)C(=Cc1ccc2c(c1)C(=O)CC2=O)C(=O)OCC` [diethyl [(1,3-dioxo-2,3-dihydro-1H-inden-5-yl)methylene]malonate], the “selective inhibition of the chromatinized Il12b reporter (eGFP) but not the minimal reporter (DsRed)” value in the test on Il12b [1] was “selective inhibitors of chromatinized Il12b”.
